Consider eleven compounds from PubChem BioAssay (NCI).

Holding throughout (experiment): NCI-60 cell line screen, 48 h
In test [1] the test system is CCRF-CEM leukemia.
Test [2] relates to EKVX NSCLC.
The test system of test [3] is HOP-62 NSCLC.
Test [4] has as its system MDA-N.
Test [5] has as its system NCI-H226 lung.
The subject of test [6] is NCI-H522 lung.
The test system of test [7] is OVCAR-3 ovarian.
The subject of test [8] is RPMI-8226 leukemia.
The test system of test [9] is SR leukemia.
Test [10] concerns TK-10 renal.
The test system of test [11] is UO-31 renal.
Test [12] relates to SNB-75 CNS.

“And” between values parts separate entries of the source, which are not always exact repeats. Identical values can stand only once.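 Tested at 5 concentrations; 48 h exposure; 96-well plates; endpoints linearly interpolated, else capped at highest concentration. The concentration for 50% growth inhibition is given as GI50. TGI marks complete inhibition of growth.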

Turning to `CCCCC1Cc2cc(O)ccc2-c2nc3cc(O)ccc3n21` (stereo not given) (tested in a mixture with another compound), the TGI was 51.8 µM in test [1]; 51.9 µM in [2]; 30.2 µM in test [3]; 36.3 µM in [4]; 46.3 µM in test [5]; 25 µM in test [6]. For the same compound, the TGI in test [7] stood at 77.7 µM; in [8], 31.5 µM; in test [9] it was 34 µM; in test [10], 43.3 µM; in test [11], 28.5 µM.
Turning to `CC(=O)c1c(N=[N+]=[N-])c2cccc3c2n(c1=O)CCC3`, the TGI turned out to be 51.8 µM in test [1]; 54.1 µM in test [2]; 42.3 µM in [3]; 44.5 µM in test [4]; 50.4 µM in test [5]; 28.1 µM in test [6]. For the same compound, the TGI in test [7] was 18.9 µM; in test [8], 66.9 µM; in test [12], 59.3 µM; in [9], more than 100 µM; in test [10], 59 µM; in [11], 55.6 µM.
As for `Oc1c(Br)ccc2cccnc12`, the TGI is 3.98 µM in test [1]; more than 66.3 µM in test [2]; more than 100 µM in test [3]; more than 100 µM in [4]; 38.5 µM in [5]; 6.21 µM in test [6]. For the same compound, the TGI in test [7] is more than 23.3 µM; in test [8], more than 27.9 µM; in test [12], more than 100 µM; in [9], more than 27.7 µM; in [10] it was more than 100 µM; in [11], 22.8 µM.
For `Cc1ccc2c(c1)CC1(Cc3cccc(C)c3C1=O)C2=O` (stereo not given), the TGI in test [1] is more than 100 µM; in test [2] it was more than 100 µM; in test [3], more than 100 µM; in [4], more than 10 µM; in test [5] it was more than 100 µM; in [6] it was more than 100 µM. Besides, the TGI in [7], in test [8], in test [12], in test [9], in [10] and in [11] was more than 100 µM in each case.
On to `O=C1c2c(Br)sc(Br)c2C(=O)C1(O)O`, for which the TGI in test [1] is 85 µM; in test [2] it was more than 100 µM; in test [3] it was more than 100 µM; in test [4], more than 100 µM; in test [5], more than 100 µM; in [6] it was 37.3 µM. Moreover, the TGI was 35.9 µM in test [7]; more than 100 µM in test [8]; more than 100 µM in [12]; 57.4 µM in test [9]; more than 100 µM in test [10]; 58.2 µM in [11].
In the case of `CCCCCCCCCCCC(=O)OC[C@@H](C[As](=O)(O)O)OC(=O)CCCCCCCCCCC`, the TGI is more than 94.4 µM in [1]; 28.8 µM in test [2]; 28.8 µM in test [3]; 15 µM in [4]; 34.1 µM in test [5]; 6.5 µM in [6]. Also, the TGI in [7] is 16.5 µM; in [8], more than 68.2 µM; in test [12], 16.6 µM; in test [9], 57.2 µM; in test [10], 25 µM; in test [11] it was 27.9 µM.
Take `Cc1ccnc2c1C(=O)C1=C(OC(C)(C)CC1O)C2=O` (stereo not given): the TGI in test [1] was found to be 44.5 µM; in [2] it was 18.5 µM; in [3], 13.6 µM; in test [4], 2.9 µM; in test [5], 21.2 µM; in test [6], 11.1 µM. The TGI was 7.18 µM in test [7]; more than 39.3 µM in test [8]; 0.297 µM in test [12]; 15.4 µM in [9]; 24.4 µM in [10]; 11.3 µM in test [11].
For `O=C1C=C(Nc2ccc(S(=O)(=O)Nc3nccs3)cc2)c2ccccc2C1=O`, the TGI in test [1] is 48.1 µM; in test [2], more than 100 µM; in test [3] it was 29.7 µM; in test [4], 38.5 µM; in [5] it was 70.1 µM; in test [6] it was more than 100 µM. For the same compound, the TGI in [7] is 36 µM; in [8] it was 98.5 µM; in [12], 66.8 µM; in test [9], more than 100 µM; in test [10], more than 100 µM; in test [11], more than 100 µM.
`CC(=O)c1ccc2c(c1)C(=O)c1sc(C(C)=O)cc1C2=O`: the GI50 was 0.182 µM in test [1]; 2.35 µM in test [3]; 0.316 µM in [4]; 1.43 µM in test [5]; 0.222 µM in test [6]; 0.329 µM in test [7]. For the same compound, the figures for the GI50 in test [9] and in test [11] were 0.0247 µM and 1.4 µM, respectively. Besides, the TGI is 3.43 µM and 2.58 µM in test [2]; 8.16 µM and 7.25 µM in test [3]; 2.02 µM and 3.38 µM in test [4]; 2.2 µM and 4.03 µM in test [5]; 1.7 µM and 0.585 µM in test [6]; 2.36 µM and 1.85 µM in test [7]. The TGI in test [8] is 23.8 µM; in [12] it was 6.27 µM and 4.85 µM; in test [9], 50 µM and > 100 µM; in [10], 5.55 µM; in [11], 2.15 µM and 2.69 µM.
As for `NCCCN(CCCN)CCc1cn(C(=O)c2ccccc2)cn1`, the TGI was found to be 14.8 µM in test [1]; 23.3 µM in test [2]; 23.4 µM in test [3]; 40.5 µM in test [4]; 26.1 µM in test [5]; 64.9 µM in [6]. Further, the TGI in test [7] is 7.75 µM; in test [8] it was 10 µM; in test [12], 17.7 µM; in test [9], 13.9 µM; in test [10], 20.6 µM.
As for `CC(NC(=O)Cc1ccccc1)NC(=O)C(C)C(=O)NCc1ccccc1` (stereo not given), the TGI in test [1] is more than 100 µM; in [2], more than 100 µM; in test [4], more than 100 µM; in test [5], 77.8 µM; in [6], more than 100 µM; in test [8], more than 100 µM. Also, the TGI in [12], in test [9], in test [10] and in test [11] was more than 100 µM in each case.
